Results published in patent US20240165072A1, “PHARMACEUTICAL COMPOSITION FOR ALLEVIATING OR TREATING HAIR LOSS THROUGH INFLAMMATION AMELIORATION OF HUMAN DERMAL PAPILLA CELLS AND PERIPHERAL CELLS AND INHIBITION OF 5A-REDUCTASE EXPRESSION” (BEN'S LAB. CO. LTD., priority 2021, published 2024).
In brackets after ≈: the same amount, converted by molar mass. Where two headings read alike, the source gives them in different places.

What was measured:
[1] = ABTS radical scavenging ability; format: biochemical; details: for ABTS radical scavenging ability (IC50): 10 minutes, absorbance 734 nm
Protocol: The ABTS radical scavenging ability was calculated according to the following Equation.
ABTS radical scavenging ability (%)=[1−(AB)/C]×100
wherein, A is the absorbance of the sample-added group (ABTS+sample); B is the absorbance of the distilled water-added group (sample+distilled water) instead of ABTS; and C is the absorbance of the ethanol-added group (ABTS+ethanol) instead of the sample.

5α-reductase type II = test: Inhibition of 5α-reductase type II expression in human dermal papilla cells (Western blot); format: cell-based; details: HFDPC; testosterone 10 μM; 72 hours; samples 10, 20 μg/ml; order genistein, kaempferol, EGCG (FIG. 4)
Protocol: The medium was then removed, and cells were collected by washing with PBS to extract proteins. To extract a protein, a lysis buffer for radio immunoprecipitation assay (RIPA) (sodium chloride 150 mM, sodium dodecyl sulfate (SDS) 0.1%, tris-hydrochloric acid (Tris-HCl: pH 7.5) 50 mM, ethylenediaminetetraacetic acid (EDTA) 2 mM, sodium deoxycholate 0.5%, Triton X-100 1%) was added and reacted, and then centrifuged at 10,000 rpm and 4° C. for 15 minutes to collect the supernatant. Then, the absorbance was measured at 595 nm to determine the protein concentration of each sample. These cell protein samples were mixed with sodium dodecyl sulfate (SDS) and a stain, and subjected to electrophoresis on a 12% SDS polyacrylamide gel.

[2] = tested on: nitric oxide production in RAW 264.7 cells; test: Inhibitory effect on nitric oxide production in macrophages (Griess); format: cell-based, mouse; details: LPS 1 μg/ml, RAW 264.7 (FIG. 2); for inhibition of nitric oxide production, rank among the three samples: compared with kaempferol
Protocol: RAW 264.7 cells, which is a mouse macrophage cell line, were dispensed in a 24-well plate at a concentration of 2×10^5 cells/well, and cultured in an incubator at 37° C. under 5% CO2 for 24 hours. Epigallocatechin gallate (EGCG), genistein, and kaempferol, which were samples dissolved in DMSO, were added thereto according to the concentrations. At this time, the final concentration of DMSO was adjusted to 0.1%. After 30 minutes, LPS (lipopolysaccharide), which is an inflammation inducing substance, was added at a concentration of 1 μg/ml. After that, these were cultured in an incubator at 37° C. under 5% CO2 for 24 hours.
To quantify nitric oxide, 50 ? of Griess reagent A (5% phosphoric acid, 1% sulfanilamide) was added to 50 ? of the cell culture medium, and then the mixture was allowed to stand in a dark place for 5 minutes. 50 ? of Griess reagent B (0.1% N-(1-naphthyl)ethylenediamine dihydrochloride) was further added thereto, and allowed to react in a dark place for 5 minutes. The absorbance of this reactant was measured at 540 nm, which was compared with the standard curve to calculate the final concentration of nitrogen monoxide. A standard curve was obtained by reacting in the same manner as above using sodium nitrite instead of the cell culture medium and then measuring the absorbance.

5-lipoxygenase (5-LO) = test: Inhibition of 5-lipoxygenase (5-LO) expression in RBL-2H3 (Western blot); format: cell-based, rat; details: Compound 48/80 1 mg/ml (FIG. 5)
Protocol: White rat basophilic leukemia cells (RBL-2H3) were dispensed into a 6-well plate at a concentration of 3×10^5 cells/well, and cultured in an incubator at 37° C. under 5% CO2 using a DMEM medium for 24 hours. Samples were added according to the concentrations, cultured for 24 hours, and then Compound 48/80 (1 mg/ml), which is substance that induces an allergic reaction, was added, and cultured for 1 hour. After that, the medium was removed, and washed with PBS to collect the cells, and then proteins were extracted. To extract protein, lysis buffer for radioimmunoprecipitation assay (RIPA; sodium chloride 150 mM, sodium dodecyl sulfate (SDS) 0.1%, tris-hydrochloric acid (Tris-HCl: pH 7.5) 50 mM, ethylenediaminetetraacetic acid (EDTA) 2 mM, sodium deoxycholate 0.5%, Triton X-100 1%) was added and reacted, and then centrifuged at 10,000 rpm and 4° C. for 15 minutes to take the supernatant. The absorbance thereof was then measured at 595 nm to determine the protein concentration of each sample. Then, the cell protein sample was mixed with sodium dodecyl sulfate (SDS) and a stain, and subjected to electrophoresis on a 12% SDS polyacrylamide gel. […]

[3] = DPPH radical scavenging ability; format: biochemical; details: for DPPH radical scavenging ability (IC50): DPPH 300 μM, 30 minutes
Protocol: 100 ? l sample and the same amount of DPPH (2,2-diphenyl-1-picrylhydrazyl, 300 μM) solution were mixed in a 96-well plate, and reacted in a dark place for 30 minutes, and the absorbance was measured at 520 nm. The same amount of ethanol was reacted instead of the sample, and the blank value was calculated according to the following Equation.
DPPH radical scavenging ability (%)=[1−(A−B)/C]×100
wherein, A is the absorbance of the sample-added group (DPPH+sample); B is the absorbance of the ethanol-added group (sample+ethanol) instead of DPPH; and C is the absorbance of the ethanol-added group (DPPH+ethanol) instead of the sample.

[4] = tested on: TNF-α release in mouse macrophages RAW 264.7 cells; test: Inhibition of TNF-α secretion in macrophages (ELISA); format: cell-based; details: for IC50: Mus musculus, RAW264.7, LPS 100 ng/ml
Protocol: (§1) Mouse macrophage RAW 264.7 was dispensed into a 24-well plate at a concentration of 2×10^5 cells/well, and cultured in an incubator at 37° C. under 5% CO2 using a DMEM medium for 24 hours, and then samples were added according to the concentrations. Thirty minutes after addition of the sample, LPS (100 ng/ml) was added and cultured at 37° C. for 20 hours to collect the culture medium. The secreted IL-6 and TNF-α were respectively quantified using Mouse IL-6 ELISA kit (Invitrogen, Thermo Scientific) and Mouse TNF-α ELISA kit (Invitrogen, Thermo Scientific).

[5] = tested on: inducible nitric oxide synthase (iNOS); test: iNOS expression inhibition in LPS-stimulated RAW 264.7 (Western blot); format: cell-based, mouse; details: 25 μg/ml, LPS 100 ng/ml, Western blot (FIG. 1)
Protocol: (§2) Mouse macrophage RAW 264.7 was dispensed into a 6-well plate at a concentration of 6×10^5 cells/well (number of cells per well), and cultured in an incubator at 37° C. under 5% CO2 using a DMEM Dulbecco's Modified Eagle's Medium (Sigma-Aldrich, Cat. No. D7777) for 24 hours, and then samples were added according to the concentrations.
(§3) Thirty minutes after the addition of the sample, lipopolysaccharide (LPS, 100 ng/ml) was added, and further cultured for 20 hours. After that, the medium was removed, washed with phosphate buffered saline (PBS) to collect the cells. In order to extract the protein, a lysis buffer for radioimmunoprecipitation assay (RIPA; sodium chloride 150 mM, sodium dodecyl sulfate (SDS) 0.1%, tris-hydrochloric acid (Tris-HCl: pH 7.5) 50 mM, ethylenediaminetetraacetic acid (EDTA) 2 mM, sodium deoxycholate 0.5%, Triton X-100 1%) was added and reacted, and then centrifuged at 10,000 rpm and 4° C. for 15 minutes to obtain the supernatant. The absorbance of the supernatant was then measured at 595 nm to determine the protein concentration of each sample. Then, the cell protein sample was mixed with sodium dodecyl sulfate (SDS) and a stain, and subjected to electrophoresis on a 12% SDS polyacrylamide gel. […]

[6] = tested on: IL-6 secretion in human follicle dermal papilla cells (HFDPC); details: TST or DHT 10 μM, 72 hours (FIG. 3)
Protocol: Human follicle dermal papilla cells (HFDPC) were dispensed into a 12-well plate at a concentration of 1×10^5 cells/well, and cultured for 24 hours. After that, the medium was replaced with Dulbecco's modified eagle's medium (DMEM) containing no fetal bovine serum (FBS), and subjected to starvation for 24 hours, and then samples were added according to the concentrations (2, 5, 10, 20 μg/ml). […] Then, the medium was collected, and IL-6 secreted in the medium was quantified using a Human IL-6 ELISA kit (Invitrogen, Thermo Scientific).

[7] = tested on: histamine release in RBL-2H3 cells; test: Inhibition of histamine release in RBL-2H3 cells (Compound 48/80); format: cell-based, rat
Protocol: White rat basophil leukemia cells (RBL-2H3) were dispensed into a 24-well plate at a concentration of 1×10^5 cells/well, and cultured for 24 hours. Samples were added according to the concentrations. After 1 hour, Compound 48/80 (1 mg/ml), which triggers an allergic reaction, was added and cultured for 20 minutes. The well plate was allowed to stand in a refrigerator at 4° C. for 10 minutes, and then the medium was collected and the amount of histamine released into the medium was quantified using the Histamine ELISA kit (Neogen).

[8] = tested on: IL-6 release in mouse macrophages RAW 264.7 cells; test: Inhibition of IL-6 secretion in macrophages (ELISA); format: cell-based; details: for IC50: Mus musculus, RAW264.7, LPS 100 ng/ml
Protocol: as §1

cyclooxygenase-2 (COX-2) = test: COX-2 expression inhibition in LPS-stimulated RAW 264.7 (Western blot); format: cell-based, mouse; details: 25 μg/ml, LPS 100 ng/ml, Western blot (FIG. 1)
Protocol: as §2, §3

[9] = highest inhibitory effect among EGCG, genistein, kaempferol
[10] = Rattus norvegicus, Compound 48/80 1 mg/ml

O=c1c(O)c(-c2ccc(O)cc2)oc2cc(O)cc(O)c12 [Kaempferol]
ABTS radical scavenging ability (IC50) [1]: 6.18 ± 0.08 µg/mL
inhibition of 5α-reductase type II expression (5α-reductase type II): effectively inhibited
inhibition of nitric oxide production ([2]; 20 μg/ml): inhibited almost to the control level
inhibition of 5-LO expression (5-lipoxygenase (5-LO)): effectively inhibits 5-LO expression at the lowest concentration
DPPH radical scavenging ability (IC50) [3]: 11.66 ± 0.30 µg/mL
IC50 ([4]; 20 hours): 13.6 ± 0.72 µg/mL (≈ 47.4 µM)
inhibition of TNF-α in macrophages (in words) [4, 9]: effectively inhibited
inhibition of iNOS expression [5]: inhibited the expression of iNOS to the control (CON) levels
inhibition of the release of IL-6 by DHT or TST ([6]; 10 μg/ml): almost completely inhibited
IC50 [7, 10]: 0.2 ± 0.02 µg/mL (≈ 0.699 µM)
inhibition at 0.2 µg/mL ([7]; Rattus norvegicus, at 0.2 μg/ml): > 50%
IC50 ([8]; 20 hours): 5.93 ± 0.07 µg/mL (≈ 20.7 µM)
inhibition of IL-6 in macrophages (in words) [8, 9]: effectively inhibited

O=c1c(-c2ccc(O)cc2)coc2cc(O)cc(O)c12 [Genistein]
ABTS radical scavenging ability ([1]; at 100 ppm): 5.29% at 100 ppm
inhibition of 5α-reductase type II expression (5α-reductase type II): effectively inhibited
inhibition of nitric oxide production, rank among the three samples [2]: slightly decreased the inhibitory power
inhibition of COX-2 expression (cyclooxygenase-2 (COX-2)): mostly inhibited the expression of COX-2
DPPH radical scavenging ability ([3]; at 100 ppm): 5.18% at 100 ppm
IC50 ([4]; 20 hours): 14.99 ± 0.11 µg/mL (≈ 55.5 µM)
inhibition of the release of IL-6 by DHT or TST ([6]; 5 μg/ml): almost completely inhibited
IC50 [7, 10]: > 1000 µg/mL
inhibition at 1000 µg/mL ([7]; Rattus norvegicus, at 1000 μg/ml): 46%
IC50 ([8]; 20 hours): 8.92 ± 0.08 µg/mL (≈ 33 µM)

O=C(O[C@@H]1Cc2c(O)cc(O)cc2O[C@@H]1c1cc(O)c(O)c(O)c1)c1cc(O)c(O)c(O)c1 [Epigallocatechin gallate (EGCG), Epigallocatechin gallate]
ABTS radical scavenging ability (IC50) [1]: 1.65 µg/mL
inhibition of 5α-reductase type II expression (5α-reductase type II): effectively inhibited
inhibition of nitric oxide production, rank among the three samples [2]: next most inhibitory
DPPH radical scavenging ability (IC50) [3]: 3.40 µg/mL
TNF-α (IC50) ([4]; LPS 100 ng/ml, 20 hours): 83.68 ± 3.45 µg/mL
histamine release inhibition (IC50) ([7]; Compound 48/80 1 mg/ml): 50.0 ± 9.80 µg/mL
IL-6 (IC50) ([8]; LPS 100 ng/ml, 20 hours): 98.99 ± 10.87 µg/mL
